What was measured:
[1] = tested on: Calreticulin, Hmgb1, Lc3b mRNA in MC38 cells; test: In vitro gene regulation by RT-qPCR; format: cell-based, murine; settings: 8 μM, 24 hours
Description: MC38 cells were seeded at 3×10^5 cells/well in 6-well plates 24 hours before treatments. […] R848 and IVM were both treated at 8 μM, either as free drug solution or in squalene NE. Total RNA was extracted using TRI reagent (Zymo Research) per manufacturer protocol. cDNA was prepared by high-capacity cDNA reverse transcription kit (Invitrogen, Waltham, MA, USA), and real-time qPCR (RT-qPCR) was done using SsoAdvanced™ Universal SYBRR Green Supermix (Bio-Rad Laboratories, Hercules, CA) on a QuantStudio 7 Flex Real-time PCR System. RT-qPCR primers for murine Calreticulin, Hmgb1, Lc3b, and Actb were purchased from Sigma-Aldrich. Actb was selected as the housekeeping gene control. The relative amount of RNA level was calculated and compared according to the 2-ΔΔCt method.

MC38 cells = test: Cell viability assay (MTS); format: cell-based, murine; settings: (SEM)
Description: Cell Viability Assay. MC38 cells were seeded at 3000 cells/well in 96-well plates 24 hours before treatments. […] After 72 hour-treatment, cell viability was examined by CellTiter 96R AQueous One Solution (Promega, Madison, WI) per manufacturer protocol. The IC50 for R848 or IVM was determined by R programming.

[2] = Saturated solubility study in squalene NE and PBS; format: physicochemical; settings: 2 mg/ml, room temperature, 24 hours
Description: In the saturated solubility study, R848 or IVM were dissolved in PBS or formulated in NE at 2 mg/ml and incubated at room temperature for 24 hours. Insoluble solid drugs were pelleted down by centrifugation. Supernatants were collected for concentration analysis. R848 concentrations were quantified by UV-Vis spectrometry at 320 nm using a NanoDrop 2000 spectrophotometer. IVM concentrations were quantified by high-performance liquid chromatography (HPLC) using an isocratic mobile phase composed of water/methanol/acetonitrile (8:36:56, v/v/v), an C18 column (Kromasil 150-C-18, 4.6×150 mm), and PDA detection at 230 nm.

| SMILES | Calreticulin mRNA level [1] | IC50 (MC38 cells; 72 hours) [µM] | Increase of solubility in squalene-based NE compared with PBS [2] [fold] | IC50 (MC38 cells; Mus musculus, MC-38, 72 hours) [µM] |
| --- | --- | --- | --- | --- |
| CC[C@H](C)[C@H]1O[C@]2(CC[C@@H]1C)C[C@@H]1C[C@@H](C/C=C(\C)[C@@H](O[C@H]3C[C@H](OC)[C@@H](O[C@H]4C[C@H](OC)[C@@H](O)[C@H](C)O4)[C@H](C)O3)[C@@H](C)/C=C/C=C3\CO[C@@H]4[C@H](O)C(C)=C[C@@H](C(=O)O1)[C@]34O)O2 [IVM] | did not show significant Calreticulin regulation | 10.9 ± 4.15 | 100 | – |
| CCOCc1nc2c(N)nc3ccccc3c2n1CC(C)(C)O [R848, 4-amino-2-ethoxymethyl-α, α-dimethyl-1H-imidazol[4,5-c]quinoli-ne-1-ethanol] | – | – | 2 | > 100 |
